# Test results: patent publication US20060122214A1, “Agent for prophylaxis and treatment of angiostenosis” (priority 1999, published 2006)
# What was measured:
# [1] = test system: vascular smooth muscle cells (VSMC) derived from WKY rat aortic tunica media; experiment: Proliferation ability of VSMC ([3H] thymidine uptake method); type: cell-based; settings: for [3H] thymidine uptake: 24 hours of culture, n = 5
# Description: (1) Effect on Proliferation Ability of Vascular Smooth Muscle Cells (VSMC) Derived from WKY Rat Aortic Tunica Media (Method) VSMC were separated and cultured according to the method of Yamamoto et al. (Yamamoto H, et al., Br. J. Exp. Pathol. 64; 156-165, 1983). The proliferation ability of VSMC was determined according to the method of Berk et al. [[^3H] thymidine uptake method; Berk B C, et al., J. Cell Physiol. 137; 391-401, 1988]. A DMEM medium containing 10% serum was changed every two days and the cells were cultured on a dish. The cells after 5 to 10 passages were subjected to the experiment. VSMC were cultured in a medium containing 1.0% serum for 24 hours and in a serum free medium for 24 hours to synchronize the cell cycle. The VSMC were transferred to a medium containing 10% fetal calf serum or a serum free medium and [^3H] thymidine (2 μCi/ml) was added to each medium to label VSMC. The test drug (Y-27632) (10 μM or 30 μM) waw simultaneously added, and after 24 hours of culture, VSMC were recovered, admixed with a scintillator (ACSII, Amersham) and subjected to the measurement of radioactivity by a liquid scintillation counter (LS6500, Beckman), based on which the [^3H] thymidine uptake was measured.
# [2] = test system: vascular smooth muscle cells (VSMC) derived from WKY rat aortic tunica media; experiment: Migration ability of cultured VSMC (96 well chemotaxis chamber, A595); type: cell-based; settings: for A595 (VSMC migrated to the lower surface of the membrane): Y-27632 10 μM, cultured for 18 hours
# Description: (2) Effect on Migration Ability of Cultured VSMC (Method) A serum free medium or a medium containing 10% serum, which contained the test drug (Y-27632, 10 μM), was placed in a 96 well chemotaxis lower chamber, and a serum free medium containing the test drug was placed in 96 well chemotaxis upper and lower chambers where VSMC were suspended, and then cultured for 18 hours. The VSMC migrated to the lower surface of the membrane were stained with QuickDiff (International Reagents Corporation) and absorbance was measured at A595.
# [3] = test system: left carotid artery intima of WKY rats; experiment: Proliferation of regenerated intima after balloon injury of carotid artery in rat; type: in vivo; settings: 30 mg/kg intraperitoneal, consecutively from 3 days before operation, 14 days after the operation, control 1.88±0.24, sham 0.03±0.01
# Description: Effect on Proliferation of Regenerated Intima after Balloon Injury of Carotid Artery in Rat 2F Fogarty catheter was inserted from the outer left carotid artery of 8-week-old male WKY rats under anesthesia and inflated in the left common carotid artery, whereby intima was detached in the entire length. Physiological saline was consecutively administered to a control group, and the test drug (Y-27632) (30 mg/kg) was consecutively administered to a test group, wherein both groups underwent intraperitoneal administration starting from 3 days before operation. The rats free of the intima detachment treatment were used as a sham group. At 14 days after the operation, left carotid artery was subjected to perfusion fixation and removed thereafter, stained with HE, and a new intima thickness/medial thickness (I/M) ratio was measured.
smiles,measurement,setting,value
"C[C@@H](N)[C@H]1CC[C@H](C(=O)Nc2ccncc2)CC1 [Compound Y-27632, (+)-trans-4-(1-aminoethyl)-1-(4-pyridylcarbamoyl)cyclohexane 2HCl.1H2O]",[3H] thymidine uptake,"[1]; +10% FCS, Y-27632 10 μM",360153 ± 10425 dpm/dish
same,[3H] thymidine uptake,"[1]; +10% FCS, Y-27632 30 μM",366089 ± 12882 dpm/dish
same,[3H] thymidine uptake,"[1]; FCS-free medium, Y-27632 10 μM",150381 ± 6515 dpm/dish
same,[3H] thymidine uptake,"[1]; FCS-free medium, Y-27632 30 μM",127767 ± 2482 dpm/dish
same,effect on [3H] thymidine uptake (in words),[1]; serum stimulation group and control group (serum free),did not affect
same,A595 (VSMC migrated to the lower surface of the membrane),[2]; +10% FCS,0.036 ± 0.010 arbitrary unit/well
same,A595 (VSMC migrated to the lower surface of the membrane),[2]; FCS-Free,0.007 ± 0.003 arbitrary unit/well
same,effect on migration ability of VSMC (in words),[2]; both medium containing 10% serum and serum free medium,suppressed the migration ability
same,new intima thickness/medial thickness (I/M) ratio,[3],0.46±0.22
